ChEMBL document CHEMBL1155993, “5-(2-Pyrimidinyl)-imidazo[1,2-a]pyridines are antibacterial agents targeting the ATPase domains of DNA gyrase and topoisomerase IV” (Bioorg Med Chem Lett, 2009)
≈ marks a conversion by molar mass, not a printed value.

Tests used:
Streptococcus pneumoniae [1] = assay: Antibacterial activity against fluoroquinolone resistant Streptococcus pneumoniae SP-3765 by NCCLS method; type: functional
Streptococcus pneumoniae [2] = assay: Antibacterial activity against Streptococcus pneumoniae D39 by NCCLS method; type: functional
ParE = molecular target: T1, ParE (Streptococcus pneumoniae, UniProt Q7X1P7); assay: Inhibition of Streptococcus pneumoniae SP-3 parE after 30 mins
T1 sequence (Q7X1P7 whole entry): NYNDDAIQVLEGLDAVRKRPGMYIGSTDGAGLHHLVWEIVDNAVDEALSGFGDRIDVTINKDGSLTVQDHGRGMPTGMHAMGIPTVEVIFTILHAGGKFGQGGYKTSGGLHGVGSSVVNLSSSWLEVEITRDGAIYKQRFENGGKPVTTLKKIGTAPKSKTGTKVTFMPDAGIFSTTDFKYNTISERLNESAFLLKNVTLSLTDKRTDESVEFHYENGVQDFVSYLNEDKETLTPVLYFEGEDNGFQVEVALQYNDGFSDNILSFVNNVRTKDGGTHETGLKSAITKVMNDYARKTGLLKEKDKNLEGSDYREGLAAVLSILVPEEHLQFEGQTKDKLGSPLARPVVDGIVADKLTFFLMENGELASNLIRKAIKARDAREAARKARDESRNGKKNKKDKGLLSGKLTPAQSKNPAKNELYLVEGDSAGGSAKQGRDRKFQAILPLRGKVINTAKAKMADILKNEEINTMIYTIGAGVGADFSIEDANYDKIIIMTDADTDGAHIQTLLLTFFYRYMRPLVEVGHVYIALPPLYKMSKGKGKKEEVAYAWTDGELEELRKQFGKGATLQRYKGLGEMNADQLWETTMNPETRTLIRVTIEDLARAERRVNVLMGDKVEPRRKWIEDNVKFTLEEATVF

Streptococcus pyogenes [3] = assay: Antibacterial activity against Streptococcus pyogenes C203 by NCCLS method; type: functional
Staphylococcus aureus [4] = assay: Antibacterial activity against methicillin resistant Staphylococcus aureus 01A-1095 by NCCLS method; type: functional
Staphylococcus aureus [5] = assay: Antibacterial activity against Staphylococcus aureus UC76 by NCCLS method; type: functional, organism-based
[6] = Volume of distribution in rat; type: ADME, organism-based; conditions: in vivo
Streptococcus pneumoniae [7] = assay: Antibacterial activity against Streptococcus pneumoniae SP-3 by NCCLS method; type: functional
Streptococcus pyogenes [8] = assay: Antibacterial activity against Streptococcus pyogenes SP1-1 infected in po dosed mouse sepsis model; type: functional; conditions: SP1-1, po, read-out: PD50
[9] = Clearance in rat; type: ADME, organism-based; conditions: in vivo
Staphylococcus aureus [10] = assay: Antibacterial activity against methicillin resistant Staphylococcus aureus SA-1417 by NCCLS method; type: functional
[11] = Bioavailability in rat; type: ADME, organism-based; conditions: in vivo
DNA gyrase subunit B = DNA gyrase subunit B (Streptococcus pneumoniae serotype 4 (strain ATCC BAA-334 / TIGR4), UniProt P0A4L9); assay: Inhibition of Streptococcus pneumoniae SP-3 gyrB by enzyme coupled phosphate assay
Sequence of DNA gyrase subunit B (P0A4L9 whole entry): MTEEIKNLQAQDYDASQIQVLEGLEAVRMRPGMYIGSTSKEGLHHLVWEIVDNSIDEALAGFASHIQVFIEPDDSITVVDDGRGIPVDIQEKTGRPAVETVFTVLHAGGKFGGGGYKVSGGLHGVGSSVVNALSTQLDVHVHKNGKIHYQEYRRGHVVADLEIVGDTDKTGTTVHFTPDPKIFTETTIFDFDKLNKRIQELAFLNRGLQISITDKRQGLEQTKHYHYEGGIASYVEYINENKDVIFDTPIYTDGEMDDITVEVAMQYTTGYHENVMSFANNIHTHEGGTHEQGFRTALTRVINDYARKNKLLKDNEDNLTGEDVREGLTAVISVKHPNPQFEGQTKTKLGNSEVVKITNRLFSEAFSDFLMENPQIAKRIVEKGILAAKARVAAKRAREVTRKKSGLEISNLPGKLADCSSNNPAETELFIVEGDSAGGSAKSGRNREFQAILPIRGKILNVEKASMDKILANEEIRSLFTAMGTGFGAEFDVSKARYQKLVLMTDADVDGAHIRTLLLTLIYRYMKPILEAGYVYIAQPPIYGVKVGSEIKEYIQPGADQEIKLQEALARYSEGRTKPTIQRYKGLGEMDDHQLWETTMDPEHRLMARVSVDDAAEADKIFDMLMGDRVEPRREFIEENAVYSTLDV

Streptococcus pneumoniae [12] = assay: Antibacterial activity against Streptococcus pneumoniae SV-1 infected in po dosed mouse lung; type: functional; conditions: SV-1, po, read-out: PD50
Streptococcus pyogenes [13] = assay: Antibacterial activity against Streptococcus pyogenes SP1-1 by NCCLS method; type: functional

Compound	MIC (Streptococcus pneumoniae [1])	MIC (Streptococcus pneumoniae [2])	IC50 (ParE)	MIC (Streptococcus pyogenes [3])	MIC (Staphylococcus aureus [4])	MIC (Staphylococcus aureus [5])	Vd [6]	MIC (Streptococcus pneumoniae [7])	ED50 (Streptococcus pyogenes [8])	clearance [9]	MIC (Staphylococcus aureus [10])	bioavailability [11]	IC50 (DNA gyrase subunit B)	ED50 (Streptococcus pneumoniae [12])	MIC (Staphylococcus aureus [5]; read-out: MIC)	MIC (Streptococcus pyogenes [13])
CO[C@@H]1[C@@H](OC(N)=O)[C@@H](O)[C@H](Oc2ccc3c(O)c(NC(=O)c4ccc(O)c(CC=C(C)C)c4)c(=O)oc3c2C)OC1(C)C [NOVOBIOCIN]	4 µg/mL (≈ 6.53 µM)	4 µg/mL (≈ 6.53 µM)	2030 nM	8 µg/mL (≈ 13.1 µM)	0.125 µg/mL (≈ 0.204 µM)	0.125 µg/mL (≈ 0.204 µM)										
CCNC(=O)Nc1cn2c(-c3ncccn3)cc(-c3cccnc3)cc2n1	0.25 µg/mL (≈ 0.696 µM)		447 nM				1.6 L/kg	0.125 µg/mL (≈ 0.348 µM)	24 mg/kg	33 mL/min/kg	0.5 µg/mL (≈ 1.39 µM)	56%	48 nM	35 mg/kg	0.5 µg/mL (≈ 1.39 µM)	0.25 µg/mL (≈ 0.696 µM)
CCNC(=O)Nc1cn2c(-c3ncc(C)cn3)cc(-c3cccnc3)cc2n1	0.125 µg/mL (≈ 0.335 µM)		250 nM				1.3 L/kg	0.125 µg/mL (≈ 0.335 µM)	24 mg/kg	18 mL/min/kg	0.5 µg/mL (≈ 1.34 µM)	99%	53 nM	21 mg/kg	0.5 µg/mL (≈ 1.34 µM)	0.5 µg/mL (≈ 1.34 µM)
CCNC(=O)Nc1cn2c(-c3nc(C)cc(C)n3)cc(-c3cccnc3)cc2n1	0.5 µg/mL (≈ 1.29 µM)		541 nM					0.5 µg/mL (≈ 1.29 µM)			4 µg/mL (≈ 10.3 µM)		198 nM		1 µg/mL (≈ 2.58 µM)	1 µg/mL (≈ 2.58 µM)
CCNC(=O)Nc1cn2c(-c3nccc(C4CC4)n3)cc(-c3cccnc3)cc2n1	0.25 µg/mL (≈ 0.626 µM)		3750 nM					0.125 µg/mL (≈ 0.313 µM)			0.5 µg/mL (≈ 1.25 µM)		330 nM		0.5 µg/mL (≈ 1.25 µM)	1 µg/mL (≈ 2.5 µM)
